In US12433293B2, “Herbicidal compositions” (BAYER AKTIENGESELLSCHAFT, priority 2019, dated 2025):

Tested on: harmful plant species
Experiment: Specific trial examples: synergistic effect (Δ) of herbicidal binary compositions applied by the post-emergence method, observed vs Colby expected value (Tables 3.1-3.4)
Format: in vivo
[1] = 1 g a.i./ha, post-emergence (Z25)
[2] = 1 g a.i./ha, post-emergence (Z26)
[3] = 4 g a.i./ha, post-emergence (Table 3.2, Z25)
[4] = 5 g a.i./ha, post-emergence (Table 3.2, Z25)
[5] = 16 g a.i./ha, post-emergence (Table 3.2, Z25)

O=C(Nc1ccc(F)cc1F)c1cccnc1Oc1cccc(C(F)(F)F)c1 [(B2.18) Diflufenican]
Herbicidal action 14 DAT [%] against Alopecurus myosuroides (30 g a.i./ha, post-emergence): 20%
Herbicidal action 14 DAT [%] against Phalaris minor (30 g a.i./ha, post-emergence): 20%
Herbicidal action 21 DAT [%] against Abutilon theophrasti (30 g a.i./ha, post-emergence): 20%
Herbicidal action 21 DAT [%] against Ipomoea purpurea (30 g a.i./ha, post-emergence): 30%
Herbicidal action 21 DAT [%] against Kochia Scoparia (30 g a.i./ha, post-emergence): 10%
Herbicidal action 21 DAT [%] against Setaria viridis (30 g a.i./ha, post-emergence): 10%
Herbicidal action 28 DAT [%] against Phalaris minor (30 g a.i./ha, post-emergence): 10%
Herbicidal action 28 DAT [%] against Poa annua L. (30 g a.i./ha, post-emergence): 10%
Herbicidal action 28 DAT [%] against Veronica hederifolia (30 g a.i./ha, post-emergence): 20%
Herbicidal action 14 DAT [%] against Alopecurus myosuroides (90 g a.i./ha, post-emergence): 20%
Herbicidal action 14 DAT [%] against Lolium rigidum (90 g a.i./ha, post-emergence): 20%
Herbicidal action 14 DAT [%] against Poa annua L. (90 g a.i./ha, post-emergence): 20%
Herbicidal action 21 DAT [%] against Abutilon theophrasti (90 g a.i./ha, post-emergence): 20%
Herbicidal action 21 DAT [%] against Kochia Scoparia (90 g a.i./ha, post-emergence): 20%
Herbicidal action 21 DAT [%] against Setaria viridis (90 g a.i./ha, post-emergence): 20%
Herbicidal action 28 DAT [%] against Phalaris minor (90 g a.i./ha, post-emergence): 10%
Herbicidal action 28 DAT [%] against Poa annua L. (90 g a.i./ha, post-emergence): 20%
Herbicidal action 28 DAT [%] against Veronica hederifolia (90 g a.i./ha, post-emergence): 20%
Herbicidal action 14 DAT [%] against Lolium rigidum (270 g a.i./ha, post-emergence): 20%
Herbicidal action 14 DAT [%] against Matricaria inodora (270 g a.i./ha, post-emergence): 30%
Herbicidal action 14 DAT [%] against Phalaris minor (270 g a.i./ha, post-emergence): 30%
Herbicidal action 14 DAT [%] against Veronica hederifolia (270 g a.i./ha, post-emergence): 30%
Herbicidal action 21 DAT [%] against Abutilon theophrasti (270 g a.i./ha, post-emergence): 30%
Herbicidal action 21 DAT [%] against Ipomoea purpurea (270 g a.i./ha, post-emergence): 60%
Herbicidal action 21 DAT [%] against Kochia Scoparia (270 g a.i./ha, post-emergence): 25%
Herbicidal action 28 DAT [%] against Alopecurus myosuroides (270 g a.i./ha, post-emergence): 20%
Herbicidal action 28 DAT [%] against Lolium rigidum (270 g a.i./ha, post-emergence): 30%
Herbicidal action 28 DAT [%] against Matricaria inodora (270 g a.i./ha, post-emergence): 20%
Herbicidal action 28 DAT [%] against Phalaris minor (270 g a.i./ha, post-emergence): 30%
Herbicidal action 28 DAT [%] against Poa annua L. (270 g a.i./ha, post-emergence): 30%
Herbicidal action 28 DAT [%] against Veronica hederifolia (270 g a.i./ha, post-emergence): 30%

CP(=O)(O)CCC(N)C(=O)O (stereo not drawn) [(B7.4) Glufosinate]
Herbicidal action 21 DAT [%] against Abutilon theophrasti (50 g a.i./ha, post-emergence): 50%
Herbicidal action 21 DAT [%] against Kochia Scoparia (50 g a.i./ha, post-emergence): 10%
Herbicidal action 21 DAT [%] against Amaranthus palmeri (50 g a.i./ha, post-emergence (Z25)): 35%
Herbicidal action 14 DAT [%] against Phalaris minor (60 g a.i./ha, post-emergence): 20%
Herbicidal action 14 DAT [%] against Veronica hederifolia (60 g a.i./ha, post-emergence): 50%
Herbicidal action 28 DAT [%] against Phalaris minor (60 g a.i./ha, post-emergence): 10%
Herbicidal action 21 DAT [%] against Amaranthus palmeri (150 g a.i./ha, post-emergence): 90%
Herbicidal action 21 DAT [%] against Kochia Scoparia (150 g a.i./ha, post-emergence): 50%
Herbicidal action 14 DAT [%] against Centaurea cyanus (180 g a.i./ha, post-emergence): 60%
Herbicidal action 14 DAT [%] against Lolium rigidum (180 g a.i./ha, post-emergence): 40%
Herbicidal action 28 DAT [%] against Centaurea cyanus (180 g a.i./ha, post-emergence): 30%
Herbicidal action 28 DAT [%] against Matricaria inodora (180 g a.i./ha, post-emergence): 60%
Herbicidal action 28 DAT [%] against Phalaris minor (180 g a.i./ha, post-emergence): 30%
Herbicidal action 28 DAT [%] against Poa annua L. (180 g a.i./ha, post-emergence): 20%
Herbicidal action 14 DAT [%] against Centaurea cyanus (540 g a.i./ha, post-emergence): 85%
Herbicidal action 14 DAT [%] against Lolium rigidum (resistant biotype) (540 g a.i./ha, post-emergence): 50%
Herbicidal action 14 DAT [%] against Phalaris minor (540 g a.i./ha, post-emergence): 60%
Herbicidal action 28 DAT [%] against Centaurea cyanus (540 g a.i./ha, post-emergence): 70%
Herbicidal action 28 DAT [%] against Lolium rigidum (540 g a.i./ha, post-emergence): 40%
Herbicidal action 28 DAT [%] against Lolium rigidum (resistant biotype) (540 g a.i./ha, post-emergence): 30%
Herbicidal action 28 DAT [%] against Phalaris minor (540 g a.i./ha, post-emergence): 40%

O=C(O)CNCP(=O)(O)O [(B7.5) Glyphosate]
Herbicidal action 28 DAT [%] against Centaurea cyanus (50 g a.i./ha, post-emergence): 10%
Herbicidal action 28 DAT [%] against Phalaris minor (50 g a.i./ha, post-emergence): 30%
Herbicidal action 21 DAT [%] against Amaranthus palmeri (50 g a.i./ha, post-emergence (Z26)): 60%
Herbicidal action 14 DAT [%] against Centaurea cyanus (150 g a.i./ha, post-emergence): 50%
Herbicidal action 28 DAT [%] against Bromus sterilis (150 g a.i./ha, post-emergence): 80%
Herbicidal action 28 DAT [%] against Centaurea cyanus (150 g a.i./ha, post-emergence): 40%
Herbicidal action 28 DAT [%] against Lolium rigidum (150 g a.i./ha, post-emergence): 30%
Herbicidal action 28 DAT [%] against Matricaria inodora (150 g a.i./ha, post-emergence): 70%
Herbicidal action 21 DAT [%] against Kochia Scoparia (150 g a.i./ha, post-emergence (Z26)): 20%
Herbicidal action 14 DAT [%] against Centaurea cyanus (450 g a.i./ha, post-emergence): 60%
Herbicidal action 28 DAT [%] against Bromus sterilis (450 g a.i./ha, post-emergence): 90%
Herbicidal action 28 DAT [%] against Centaurea cyanus (450 g a.i./ha, post-emergence): 60%
Herbicidal action 28 DAT [%] against Lolium rigidum (resistant biotype) (450 g a.i./ha, post-emergence): 70%
Herbicidal action 28 DAT [%] against Poa annua L. (450 g a.i./ha, post-emergence): 85%
Herbicidal action 16 DAT [%] against Richardia scabra (720 g a.i./ha, post-emergence): 62%
Herbicidal action 42 DAT [%] against Geranium dissectum (720 g a.i./ha, post-emergence): 50%
Herbicidal action 42 DAT [%] against Malva pusilla (720 g a.i./ha, post-emergence): 0%
Herbicidal action 45 DAT [%] against Amaranthus tuberculatus (720 g a.i./ha, post-emergence): 15%
Herbicidal action 45 DAT [%] against Ipomoea ssp (720 g a.i./ha, post-emergence): 0%
Herbicidal action 45 DAT [%] against Lysimachia nummularia (720 g a.i./ha, post-emergence): 7%

C=C[C@]1(C(=O)N[C@H]2C=C[C@@H](C(=O)OC)C2)CC(c2cc(F)cc(F)c2)=NO1 [Compound A1, methyl (1S,4R)-4-[[[(5S)-3-(3,5-difluorophenyl)-5-vinyl-4H-1,2-oxazol-5-yl]carbonyl]amino]cyclopent-2-ene-1-carboxylate]
Herbicidal action 14 DAT [%] against Lolium rigidum (resistant biotype) (1 g a.i./ha, post-emergence): 20%
Herbicidal action 14 DAT [%] against Phalaris minor (1 g a.i./ha, post-emergence): 30%
Herbicidal action 14 DAT [%] against Veronica hederifolia (1 g a.i./ha, post-emergence): 30%
Herbicidal action 28 DAT [%] against Bromus sterilis (1 g a.i./ha, post-emergence): 30%
Herbicidal action 28 DAT [%] against Lolium rigidum (resistant biotype) (1 g a.i./ha, post-emergence): 20%
Herbicidal action 28 DAT [%] against Poa annua L. (1 g a.i./ha, post-emergence): 30%
Herbicidal action 14 DAT [%] against Phalaris minor (1 g a.i./ha, post-emergence (Table 3.2, Z25)): 30%
Herbicidal action 14 DAT [%] against Centaurea cyanus [1]: 10%
Herbicidal action 28 DAT [%] against Centaurea cyanus [1]: 10%
Herbicidal action 28 DAT [%] against Lolium rigidum [1]: 30%
Herbicidal action 28 DAT [%] against Matricaria inodora [1]: 50%
Herbicidal action 14 DAT [%] against Centaurea cyanus [2]: 10%
Herbicidal action 28 DAT [%] against Centaurea cyanus [2]: 10%
Herbicidal action 28 DAT [%] against Lolium rigidum [2]: 30%
Herbicidal action 28 DAT [%] against Matricaria inodora [2]: 50%
Herbicidal action 28 DAT [%] against Poa annua L. [2]: 30%
Herbicidal action 21 DAT [%] against Setaria viridis (1.7 g a.i./ha, post-emergence): 85%
Herbicidal action 14 DAT [%] against Alopecurus myosuroides (4 g a.i./ha, post-emergence): 80%
Herbicidal action 14 DAT [%] against Centaurea cyanus (4 g a.i./ha, post-emergence): 30%
Herbicidal action 14 DAT [%] against Lolium rigidum (4 g a.i./ha, post-emergence): 70%
Herbicidal action 14 DAT [%] against Matricaria inodora (4 g a.i./ha, post-emergence): 70%
Herbicidal action 14 DAT [%] against Phalaris minor (4 g a.i./ha, post-emergence): 75%
Herbicidal action 14 DAT [%] against Poa annua L. (4 g a.i./ha, post-emergence): 80%
Herbicidal action 28 DAT [%] against Alopecurus myosuroides (4 g a.i./ha, post-emergence): 85%
Herbicidal action 28 DAT [%] against Centaurea cyanus (4 g a.i./ha, post-emergence): 30%
Herbicidal action 28 DAT [%] against Lolium rigidum (4 g a.i./ha, post-emergence): 75%
Herbicidal action 28 DAT [%] against Phalaris minor (4 g a.i./ha, post-emergence): 70%
Herbicidal action 28 DAT [%] against Poa annua L. (4 g a.i./ha, post-emergence): 85%
Herbicidal action 28 DAT [%] against Veronica hederifolia (4 g a.i./ha, post-emergence): 40%
Herbicidal action 14 DAT [%] against Phalaris minor [3]: 75%
Herbicidal action 28 DAT [%] against Lolium rigidum [3]: 75%
Herbicidal action 28 DAT [%] against Phalaris minor [3]: 70%
Herbicidal action 28 DAT [%] against Poa annua L. [3]: 85%
Herbicidal action 28 DAT [%] against Lolium rigidum (resistant biotype) (4 g a.i./ha, post-emergence (Z25)): 40%
Herbicidal action 28 DAT [%] against Lolium rigidum (resistant biotype) (4 g a.i./ha, post-emergence (Z26)): 40%
Herbicidal action 21 DAT [%] against Abutilon theophrasti (5 g a.i./ha, post-emergence): 60%
Herbicidal action 21 DAT [%] against Ipomoea purpurea (5 g a.i./ha, post-emergence): 80%
Herbicidal action 21 DAT [%] against Kochia Scoparia (5 g a.i./ha, post-emergence): 75%
Herbicidal action 21 DAT [%] against Setaria viridis (5 g a.i./ha, post-emergence): 90%
Herbicidal action 21 DAT [%] against Abutilon theophrasti [4]: 60%
Herbicidal action 21 DAT [%] against Kochia Scoparia [4]: 75%
Herbicidal action 21 DAT [%] against Amaranthus palmeri (5 g a.i./ha, post-emergence (Z25)): 30%
Herbicidal action 21 DAT [%] against Amaranthus palmeri (5 g a.i./ha, post-emergence (Z26)): 30%
Herbicidal action 21 DAT [%] against Amaranthus palmeri (15 g a.i./ha, post-emergence): 40%
Herbicidal action 21 DAT [%] against Ipomoea purpurea (15 g a.i./ha, post-emergence): 80%
Herbicidal action 21 DAT [%] against Kochia Scoparia (15 g a.i./ha, post-emergence): 80%
Herbicidal action 21 DAT [%] against Kochia Scoparia (15 g a.i./ha, post-emergence (Table 3.2, Z25)): 80%
Herbicidal action 21 DAT [%] against Kochia Scoparia (15 g a.i./ha, post-emergence (Z26)): 80%
Herbicidal action 14 DAT [%] against Alopecurus myosuroides (16 g a.i./ha, post-emergence): 85%
Herbicidal action 14 DAT [%] against Centaurea cyanus (16 g a.i./ha, post-emergence): 40%
Herbicidal action 14 DAT [%] against Lolium rigidum (16 g a.i./ha, post-emergence): 80%
Herbicidal action 14 DAT [%] against Poa annua L. (16 g a.i./ha, post-emergence): 80%
Herbicidal action 14 DAT [%] against Veronica hederifolia (16 g a.i./ha, post-emergence): 70%
Herbicidal action 28 DAT [%] against Centaurea cyanus (16 g a.i./ha, post-emergence): 50%
Herbicidal action 28 DAT [%] against Matricaria inodora (16 g a.i./ha, post-emergence): 85%
Herbicidal action 28 DAT [%] against Phalaris minor (16 g a.i./ha, post-emergence): 85%
Herbicidal action 28 DAT [%] against Matricaria inodora [5]: 85%
Herbicidal action 28 DAT [%] against Phalaris minor [5]: 85%
Herbicidal action 28 DAT [%] against Phalaris minor (16 g a.i./ha, post-emergence (Z26)): 85%
Herbicidal action 21 DAT [%] against Kochia Scoparia (45 g a.i./ha, post-emergence): 85%
Herbicidal action 16 DAT [%] against Richardia scabra (100 g a.i./ha, post-emergence): 48%
Herbicidal action 42 DAT [%] against Geranium dissectum (100 g a.i./ha, post-emergence): 17%
Herbicidal action 42 DAT [%] against Malva pusilla (100 g a.i./ha, post-emergence): 0%
Herbicidal action 45 DAT [%] against Amaranthus tuberculatus (100 g a.i./ha, post-emergence): 57%
Herbicidal action 45 DAT [%] against Ipomoea ssp (100 g a.i./ha, post-emergence): 57%
Herbicidal action 45 DAT [%] against Lysimachia nummularia (100 g a.i./ha, post-emergence): 25%
